Data published in ChEMBL document CHEMBL2311520, “Total synthesis of AMF-26, an antitumor agent for inhibition of the Golgi system, targeting ADP-ribosylation factor 1” (J Med Chem, 2013).
One block for each compound: values may come before it. Activity calls are given as the source filed them. The calls are words filed in the database; no cut-off is given here.

Assays:
PC-3 = test: Growth inhibition of human PC3 cells after 48 hrs by Sulforhodamine B assay; type: functional; conditions: PC-3, 48 h
DU-145 = test: Growth inhibition of human DU145 cells after 48 hrs by Sulforhodamine B assay; type: functional; conditions: DU-145, 48 h
MKN-74 = test: Growth inhibition of human MKN74 cells after 48 hrs by Sulforhodamine B assay; type: functional; conditions: MKN-74, 48 h
MKN-7 = test: Growth inhibition of human MKN7 cells after 48 hrs by Sulforhodamine B assay; type: functional; conditions: MKN-7, 48 h
MKN-28 = test: Growth inhibition of human MKN28 cells after 48 hrs by Sulforhodamine B assay; type: functional; conditions: MKN-28, 48 h
St-4 = test: Growth inhibition of human St-4 cells after 48 hrs by Sulforhodamine B assay; type: functional; conditions: St-4, 48 h
[1] = Growth inhibition of human RXF631L cells after 48 hrs by Sulforhodamine B assay; type: functional; conditions: RXF 631, 48 h
ACHN = test: Growth inhibition of human ACHN cells after 48 hrs by Sulforhodamine B assay; type: functional
SK-OV-3 = test: Growth inhibition of human SKOV3 cells after 48 hrs by Sulforhodamine B assay; type: functional; conditions: SK-OV-3, 48 h
OVCAR-3 = test: Growth inhibition of human OVCAR3 cells after 48 hrs by Sulforhodamine B assay; type: functional; conditions: OVCAR-3, 48 h
OVCAR-5 = test: Growth inhibition of human OVCAR5 cells after 48 hrs by Sulforhodamine B assay; type: functional; conditions: OVCAR-5, 48 h
LOX IMVI = test: Growth inhibition of human LOXIMVI cells after 48 hrs by Sulforhodamine B assay; type: functional
DMS-114 = test: Growth inhibition of human DMS114 cells after 48 hrs by Sulforhodamine B assay; type: functional; conditions: DMS-114, 48 h
A549 = test: Growth inhibition of human A549 cells after 48 hrs by Sulforhodamine B assay; type: functional; conditions: A549, 48 h
DMS-273 = test: Growth inhibition of human DMS273 cells after 48 hrs by Sulforhodamine B assay; type: functional; conditions: DMS-273, 48 h
NCI-H460 = test: Growth inhibition of human NCI-H460 cells after 48 hrs by Sulforhodamine B assay; type: functional; conditions: NCI-H460, 48 h
NCI-H522 = test: Growth inhibition of human NCI-H522 cells after 48 hrs by Sulforhodamine B assay; type: functional; conditions: NCI-H522, 48 h
NCI-H23 = test: Growth inhibition of human NCI-H23 cells after 48 hrs by Sulforhodamine B assay; type: functional; conditions: NCI-H23, 48 h
HCT-116 = test: Growth inhibition of human HCT116 cells after 48 hrs by Sulforhodamine B assay; type: functional; conditions: HCT-116, 48 h
HCT-15 = test: Growth inhibition of human HCT15 cells after 48 hrs by Sulforhodamine B assay; type: functional; conditions: HCT-15, 48 h
SNB-78 = test: Growth inhibition of human SNB-78 cells after 48 hrs by Sulforhodamine B assay; type: functional; conditions: SNB-78, 48 h
[2] = Growth inhibition of human HCC2998 cells after 48 hrs by Sulforhodamine B assay; type: functional; conditions: HCC 2998, 48 h
SF-539 = test: Growth inhibition of human SF539 cells after 48 hrs by Sulforhodamine B assay; type: functional; conditions: SF-539, 48 h
SF-295 = test: Growth inhibition of human SF295 cells after 48 hrs by Sulforhodamine B assay; type: functional; conditions: SF-295, 48 h
U-251 = test: Growth inhibition of human U251 cells after 48 hrs by Sulforhodamine B assay; type: functional; conditions: U-251, 48 h
SF-268 = test: Growth inhibition of human SF268 cells after 48 hrs by Sulforhodamine B assay; type: functional; conditions: SF-268, 48 h
MCF7 = test: Growth inhibition of human MCF7 cells after 48 hrs by Sulforhodamine B assay; type: functional; conditions: MCF7, 48 h
[3] = Growth inhibition of human HBC5 cells after 48 hrs by Sulforhodamine B assay; type: functional; conditions: HBC5, 48 h
[4] = Growth inhibition of human HBC4 cells after 48 hrs by Sulforhodamine B assay; type: functional; conditions: read-out: logGI50 (converted)
MKN-45 = test: Growth inhibition of human MKN45 cells after 48 hrs by Sulforhodamine B assay; type: functional; conditions: MKN-45, 48 h
[5] = Growth inhibition of human MKN1 cells after 48 hrs by Sulforhodamine B assay; type: functional; conditions: MKN-1, 48 h
OVCAR-4 = test: Growth inhibition of human OVCAR4 cells after 48 hrs by Sulforhodamine B assay; type: functional; conditions: OVCAR-4, 48 h
OVCAR-8 = test: Growth inhibition of human OVCAR8 cells after 48 hrs by Sulforhodamine B assay; type: functional; conditions: OVCAR-8, 48 h
NCI-H226 = test: Growth inhibition of human NCI-H226 cells after 48 hrs by Sulforhodamine B assay; type: functional; conditions: NCI-H226, 48 h
KM12 = test: Growth inhibition of human KM12 cells after 48 hrs by Sulforhodamine B assay; type: functional; conditions: KM12, 48 h
HT-29 = test: Growth inhibition of human HT-29 cells after 48 hrs by Sulforhodamine B assay; type: functional; conditions: HT-29, 48 h
SNB-75 = test: Growth inhibition of human SNB75 cells after 48 hrs by Sulforhodamine B assay; type: functional; conditions: SNB-75, 48 h
MDA-MB-231 = test: Growth inhibition of human MDA-MB-231 cells after 48 hrs by Sulforhodamine B assay; type: functional; conditions: MDA-MB-231, 48 h
[6] = Growth inhibition of human BSY1 cells after 48 hrs by Sulforhodamine B assay; type: functional; conditions: BSY-1, 48 h
HBC4 = test: Induction of golgi disassembly in human HBC4 cells assessed as presence of GBF1 in cytoplasm at 1 to 100 nM after 1 hr by immunofluorescence microscopy; type: functional, cell-based
BSY-1 = test: Induction of golgi disassembly in human BSY1 cells assessed as presence of GBF1 in cytoplasm at 1 to 100 nM after 1 hr by immunofluorescence microscopy; type: functional, cell-based

GI50 (PC-3; read-out: logGI50 (converted)): 45.7 nM | GI50 (DU-145; read-out: logGI50 (converted)): 245 nM | GI50 (MKN-74; read-out: logGI50 (converted)): 56.2 nM | GI50 (MKN-7; read-out: logGI50 (converted)): 50.1 nM | GI50 (MKN-28; read-out: logGI50 (converted)): 79.4 nM | GI50 (ACHN; read-out: logGI50 (converted)): 47.9 nM | GI50 (SK-OV-3; read-out: logGI50 (converted)): 41.7 nM | GI50 (OVCAR-3; read-out: logGI50 (converted)): 33.1 nM | GI50 (OVCAR-5; read-out: logGI50 (converted)): 38.9 nM | GI50 (A549; read-out: logGI50 (converted)): 57.5 nM | GI50 (NCI-H460; read-out: logGI50 (converted)): 91.2 nM | GI50 (NCI-H522; read-out: logGI50 (converted)): 123 nM | GI50 (NCI-H23; read-out: logGI50 (converted)): 53.7 nM | GI50 (HCT-116; read-out: logGI50 (converted)): 40.7 nM | GI50 (HCT-15; read-out: logGI50 (converted)): 70.8 nM | GI50 (U-251; read-out: logGI50 (converted)): 58.9 nM | GI50 (MCF7; read-out: logGI50 (converted)): 42.7 nM | GI50 (MKN-45; read-out: logGI50 (converted)): 31.6 nM | GI50 (OVCAR-4; read-out: logGI50 (converted)): 31.6 nM | GI50 (OVCAR-8; read-out: logGI50 (converted)): 39.8 nM | GI50 (NCI-H226; read-out: logGI50 (converted)): 23.4 nM | GI50 (HT-29; read-out: logGI50 (converted)): 33.9 nM | GI50 (MDA-MB-231; read-out: logGI50 (converted)): 24 nM
Structure (SMILES): C/C(=C\C=C\[C@@H]1[C@H]2[C@H](C)[C@@H](O)[C@H](C)C[C@@H]2C=C[C@@H]1C)C(=O)NCc1cccnc1 (stereo in doubt; form 1)
GI50 (St-4; read-out: logGI50 (converted)): 195 nM | GI50 ([1]; read-out: logGI50 (converted)): 53.7 nM | GI50 (LOX IMVI; read-out: logGI50 (converted)): 22.9 nM | GI50 (DMS-114; read-out: logGI50 (converted)): 39.8 nM | GI50 (DMS-273; read-out: logGI50 (converted)): 53.7 nM | GI50 (SNB-78; read-out: logGI50 (converted)): 51.3 nM | GI50 ([2]; read-out: logGI50 (converted)): 39.8 nM | GI50 (SF-539; read-out: logGI50 (converted)): 52.5 nM | GI50 (SF-295; read-out: logGI50 (converted)): 58.9 nM | GI50 (SF-268; read-out: logGI50 (converted)): 44.7 nM | GI50 ([3]; read-out: logGI50 (converted)): 34.7 nM | GI50 [4]: 41.7 nM | GI50 ([5]; read-out: logGI50 (converted)): 30.2 nM | GI50 (KM12; read-out: logGI50 (converted)): 35.5 nM | GI50 (SNB-75; read-out: logGI50 (converted)): 23.4 nM | GI50 ([6]; read-out: logGI50 (converted)): 12.6 nM

GI50 (PC-3; read-out: pGI50 (converted)): 46.8 nM | GI50 (DU-145; read-out: pGI50 (converted)): 219 nM | GI50 (MKN-74; read-out: pGI50 (converted)): 81.3 nM | GI50 (MKN-7; read-out: pGI50 (converted)): 66.1 nM | GI50 (MKN-28; read-out: pGI50 (converted)): 83.2 nM | GI50 (ACHN; read-out: pGI50 (converted)): 81.3 nM | GI50 (SK-OV-3; read-out: pGI50 (converted)): 44.7 nM | GI50 (OVCAR-3; read-out: pGI50 (converted)): 46.8 nM | GI50 (OVCAR-5; read-out: pGI50 (converted)): 41.7 nM | GI50 (A549; read-out: pGI50 (converted)): 51.3 nM | GI50 (NCI-H460; read-out: pGI50 (converted)): 174 nM | GI50 (NCI-H522; read-out: pGI50 (converted)): 191 nM | GI50 (NCI-H23; read-out: pGI50 (converted)): 60.3 nM | GI50 (HCT-116; read-out: pGI50 (converted)): 74.1 nM | GI50 (HCT-15; read-out: pGI50 (converted)): 126 nM | GI50 (U-251; read-out: pGI50 (converted)): 70.8 nM | GI50 (MCF7; read-out: pGI50 (converted)): 47.9 nM | GI50 (MKN-45; read-out: GI50): 27.5 nM | GI50 (MKN-45; read-out: pGI50 (converted)): 27.5 nM | GI50 (OVCAR-4; read-out: GI50): 34.7 nM | GI50 (OVCAR-4; read-out: pGI50 (converted)): 34.7 nM | GI50 (OVCAR-8; read-out: GI50): 37.2 nM | GI50 (OVCAR-8; read-out: pGI50 (converted)): 37.1 nM | GI50 (NCI-H226; read-out: GI50): 30.9 nM | GI50 (NCI-H226; read-out: pGI50 (converted)): 30.9 nM | GI50 (HT-29; read-out: GI50): 33.9 nM | GI50 (HT-29; read-out: pGI50 (converted)): 33.9 nM | GI50 (MDA-MB-231; read-out: GI50): 22.9 nM | GI50 (MDA-MB-231; read-out: pGI50 (converted)): 22.9 nM
Structure (SMILES): C/C(=C\C=C\[C@@H]1[C@H]2[C@H](C)[C@@H](O)[C@H](C)C[C@@H]2C=C[C@@H]1C)C(=O)NCc1cccnc1 (stereo in doubt; form 2) [listing 1 of 2 here]
GI50 (St-4; read-out: pGI50 (converted)): 214 nM | GI50 ([1]; read-out: pGI50 (converted)): 112 nM | GI50 (LOX IMVI; read-out: GI50): 33.1 nM | GI50 (LOX IMVI; read-out: pGI50 (converted)): 33.1 nM | GI50 (DMS-114; read-out: pGI50 (converted)): 52.5 nM | GI50 (DMS-273; read-out: pGI50 (converted)): 79.4 nM | GI50 (SNB-78; read-out: pGI50 (converted)): 58.9 nM | GI50 ([2]; read-out: pGI50 (converted)): 47.9 nM | GI50 (SF-539; read-out: pGI50 (converted)): 58.9 nM | GI50 (SF-295; read-out: pGI50 (converted)): 100 nM | GI50 (SF-268; read-out: pGI50 (converted)): 51.3 nM | GI50 ([3]; read-out: pGI50 (converted)): 41.7 nM | GI50 ([4]; Homo sapiens, HBC4, 48 h): 46.8 nM | GI50 ([5]; read-out: GI50): 36.3 nM | GI50 ([5]; read-out: pGI50 (converted)): 36.3 nM | GI50 (KM12; read-out: GI50): 35.5 nM | GI50 (KM12; read-out: pGI50 (converted)): 35.5 nM | GI50 (SNB-75; read-out: GI50): 30.2 nM | GI50 (SNB-75; read-out: pGI50 (converted)): 30.2 nM | GI50 ([6]; read-out: GI50): 18.2 nM | GI50 ([6]; read-out: pGI50 (converted)): 18.2 nM

Structure (SMILES): C/C(=C\C=C\[C@@H]1[C@H]2[C@H](C)[C@@H](O)[C@H](C)C[C@@H]2C=C[C@@H]1C)C(=O)NCc1cccnc1 (stereo in doubt; form 2) [listing 2 of 2 here]
Activity (HBC4): Active | Activity (BSY-1): Active
